Laboratory results as given in patent publication US8173606B2, “Sulfated oligosaccharide derivatives” (Progen Pharmaceuticals Limited, priority 2004, dated 2012).

Assays:
[1] = Pharmacokinetic studies of 35S-labelled compounds after iv administration; conditions: rat; for AUC0-12 h / C0 / Cl* (apparent) / Vd* (apparent) / t1/2* (apparent): in vivo, iv, 2.5 mg/kg; for k* (apparent): iv bolus 2.5 mg/kg
Procedure: The polyol precursors for PG500, 501, 503, 504, 506 and PI-88 (2 mg of each) were desiccated under vacuum over P2O5 for 3 days. Into each vial was syringed 50 μL of a stock solution of 1.77 mg (2.0 mCi) of ^35SO3.pyridine complex and 2 mg SO3.Me3N in 300 μL of anhydrous DMF (Aldrich, redried over freshly ignited 3 A molecular sieves). A further 600 μL of anhydrous DMF was added to the SO3 vial and was distributed to each sample vial. The samples were heated to 60° for 66 hr. SO3.Me3N (14 mg in 300 μL anhydrous DMF) was added to each vessel and the resulting solutions were heated to 60° overnight. The vials were cooled to room temperature and stored at −80° C. awaiting purification.
Each sample was quenched by addition of Na2CO3 (sat. aqu. adjusted to pH 8-9), evaporated to dryness and subjected to SEC (Biogel P2, 2.6×90 cm, flow rate 30 mL/hr, 5 min/fraction). Fractions containing desired material were detected using a G-M counter and DMB test followed by CE.
Male Sprague Dawley rats (250-350 g) were used. The animals were allowed free access to food and water before and during the experiments, during which they were maintained unrestrained in metabolism cages. Rats were anaesthetized with isoflurane (Forthane®). A catheter was inserted in the external jugular vein via an incision in the neck, and was passed under the skin to a second incision in the skin of the back (midline vicinity of the scapulae). This was then exteriorized with the protection of a light metal spring. The incision was closed and the spring fixed to the skin with Michel sutures so that the rats had full range of movement. The animals were carefully monitored during recovery (1-4 h).
All doses were administered as a bolus intravenous injection of 2.5 mg/kg in a dose volume of 2 mL/kg. The total amount of radioactivity administered to each rat was 0.5-10 μCi. The dose level used in this study is 10-fold lower than the no-effect dose previously established for acute toxicity of PI-88. Blood samples (˜250 μL) were collected predose and at 5, 15, 30, 45 min, and 1, 1.5, 2, 4, 8, 12, 24, 36 and 48 h after dosing. The blood samples were immediately centrifuged and the plasma collected. At completion of the experiments, the animals were killed by a lethal overdose of IV pentobarbitone anaesthetic (Nembutal®). Urine was collected from each animal at intervals of 0-12 h, 12-24 h and 24-48 h after dosing. Cage washings (˜15 mL of deionised water) were also collected. At the end of the experiment, bladder contents were aspirated from each animal and added to the 24-48 h voidings. Feces were collected over the same time intervals as the urine.
Aliquots of plasma (100 μL), urine and cage washings (500 μL) were transferred directly to 6 mL polypropylene scintillation vials for determination of radioactivity. Feces collected during each time period (from one animal dosed with each compound) were weighed and homogenised in 4 volumes of deionised water using a mechanical homogeniser. Approximately 1 g (accurately weighed) of this slurry was transferred to a 20 mL glass scintillation vial, 2 mL of tissue solubiliser added and the vials capped and incubated at 60° C. for at least 24 h. Radioactivity was measured following mixing of samples with Packard Ultima Gold liquid scintillation counting cocktail (2.0 mL for plasma and dose, 5.0 mL for urine and cage washings, 10 mL for feces). Counting was conducted on a Packard Tr-Carb liquid scintillation counter. Any result less than three times the background was considered less than the lower limit of quantitation not used in calculations. Plasma, urine and cage washings were counted in triplicate within 5 days of collection and were not corrected for radiochemical decay. Feces were processed as a batch at the completion of the study and the counts from these samples were corrected for radiochemical decay.

heparanase = target: T1, heparanase (Homo sapiens, UniProt Q9Y251); assay: Heparanase inhibition, Microcon ultrafiltration assay; format: biochemical; conditions: 3H labelled HS, pH 5.0, 22° C., 2.5 h
T1 sequence (Q9Y251 158-543 limits assumed): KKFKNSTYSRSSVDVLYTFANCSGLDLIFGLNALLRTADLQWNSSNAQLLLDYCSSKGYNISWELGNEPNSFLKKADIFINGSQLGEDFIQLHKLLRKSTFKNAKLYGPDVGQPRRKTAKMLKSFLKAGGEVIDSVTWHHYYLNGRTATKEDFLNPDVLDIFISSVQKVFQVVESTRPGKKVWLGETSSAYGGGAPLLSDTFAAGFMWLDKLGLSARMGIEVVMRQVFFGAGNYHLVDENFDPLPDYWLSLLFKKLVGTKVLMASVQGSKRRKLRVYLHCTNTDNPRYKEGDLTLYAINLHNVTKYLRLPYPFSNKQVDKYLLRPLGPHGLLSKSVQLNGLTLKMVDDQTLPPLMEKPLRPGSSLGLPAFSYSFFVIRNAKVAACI
T1 sequence (Q9Y251 36-109 limits assumed): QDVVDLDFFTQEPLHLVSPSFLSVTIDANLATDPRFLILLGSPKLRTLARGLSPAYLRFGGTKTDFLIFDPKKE
Procedure: The heparanase assays were performed using a Microcon ultrafiltration assay. The assays rely on the principle of physically separating heparan sulfate (HS) that has been digested by heparanase from native HS to determine heparanase activity. The assay uses ultrafiltration devices (Microcon YM-10) to separate the smaller heparanase-cleaved HS fragments from native HS.
A reaction was set up with a volume of 90 μL, • 40 mM acetate buffer (pH 5.0) • 0.1 mg/mL BSA • 90 ng heparanase • 2.5 μM ^3H labelled HS • various concentrations of inhibitors.
The reactions were set up with all components except the ^3H labelled HS and allowed to equilibrate for 10 min at 22° C. The assays were then initiated by adding the HS and immediately 20 μL was taken, mixed with 80 μL of 10 mM phosphate (pH 7.0) and the 100 μL transferred to a Microcon YM-10 concentrator which was then centrifuged at approximately 14000 g for 5 min. The solution that passed through the membrane (filtrate) was retained. This sample was considered the time=0 sample. The assays (now 70 μL in volume) were allowed to react at 22° C. for 2.5 h and then the filtration step was repeated for three aliquots of 20 μL from each assay.
The time=0 filtrate and the three 2.5 h filtrate samples were counted for ^3H. The difference between the time=0 and the averaged 2.5 h samples gave the amount of heparanase activity. All inhibition assays were run with a heparanase standard assay which was identical to the assay composition above except no inhibitor was present and the amount of heparanase inhibition in the other assays determined by comparison with this standard.

Row | Substance | AUC0-12 h [1] | C0 [1] | Cl* (apparent) [1] | Vd* (apparent) [1] | t1/2* (apparent) [1] | k* (apparent) [1] | IC50 (heparanase)
1 | Benzyl Glycoside Polysulfate [PG500] | 12.6 ± 1.2 μg-eq/h · mL | 20.5 ± 1.3 μg-eq/mL | 199 ± 13.2 mL/h/kg | 38.4 ± 3.8 mL | 49.8 ± 1.2 min | 0.836 ± 0.024 h⁻¹ | 1830 ± 483 nM
2 | Octyl Glycoside Polysulfate [PG501] | 29.7 ± 3.4 μg-eq/h · mL | 35.6 ± 3.1 μg-eq/mL | 83.6 ± 9.1 mL/h/kg | 22.9 ± 2.2 mL | 66 ± 5.4 min | 0.633 ± 0.053 h⁻¹ | 1640 ± 406 nM
